In ChEMBL document CHEMBL1201862, “PubChem BioAssay data set” (2004):
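96-well plates; 48 h exposure; 5 concentrations. Endpoints by linear interpolation between flanking doses. Not reached: highest tested concentration assigned. GI50 marks 50% less growth.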 Active and inactive are the calls of the source. No stated cut-off is given here; in the data, active = GI50 up to about 1.1 µM and inactive = higher.

Assays:
Assay in all cases: NCI tumour cell line growth inhibition, 48 h
K562 = test system: K562
SF-268 = test system: SF-268
HCT-15 = test system: HCT-15
SW-620 = test system: SW-620
CCRF-CEM = test system: CCRF-CEM
SNB-75 = test system: SNB-75
OVCAR-3 = test system: OVCAR-3
KM12 = test system: KM12
RPMI-8226 = test system: RPMI-8226
SNB-19 = test system: SNB-19
NCI-H23 = test system: NCI-H23
HCC 2998 = test system: HCC 2998
U-251 = test system: U-251
COLO 205 = test system: COLO 205
Malme-3M = test system: Malme-3M
A498 = test system: A498
SR = test system: SR
UO-31 = test system: UO-31
EKVX = test system: EKVX
A549 = test system: A549

| Compound | GI50 (K562) | GI50 (SF-268) | GI50 (HCT-15) | GI50 (SW-620) | GI50 (CCRF-CEM) | GI50 (SNB-75) | GI50 (OVCAR-3) | GI50 (KM12) | GI50 (RPMI-8226) | GI50 (SNB-19) | GI50 (NCI-H23) | GI50 (HCC 2998) | GI50 (U-251) | GI50 (COLO 205) | GI50 (Malme-3M) | GI50 (A498) | GI50 (SR) | GI50 (UO-31) | GI50 (EKVX) | GI50 (A549) |
| --- | --- | --- | --- | --- | --- | --- | --- | --- | --- | --- | --- | --- | --- | --- | --- | --- | --- | --- | --- | --- |
| Cc1cc2c3c(c1)CCCN3CCC2 | > 10 µM (inactive) | > 10 µM (inactive) | > 10 µM | > 10 µM (inactive) | > 10 µM (inactive) | > 10 µM (inactive) | > 10 µM (inactive) | > 10 µM (inactive) | > 10 µM (inactive) | > 10 µM (inactive) | > 10 µM (inactive) | > 10 µM (inactive) | > 10 µM (inactive) | > 10 µM (inactive) | > 10 µM (inactive) | > 10 µM (inactive) | > 10 µM (inactive) | > 10 µM (inactive) | > 10 µM (inactive) | > 10 µM (inactive) |
| O=C(O)/C=N\N=c1[nH]c2ccccc2[nH]1 | > 100 µM (inactive) | > 100 µM (inactive) | > 100 µM | > 100 µM (inactive) | > 100 µM (inactive) | > 100 µM (inactive) | > 100 µM (inactive) | > 100 µM (inactive) | > 100 µM (inactive) | > 100 µM (inactive) | > 100 µM (inactive) | > 100 µM (inactive) | > 100 µM (inactive) | > 100 µM (inactive) | > 100 µM (inactive) | > 100 µM (inactive) | > 100 µM (inactive) | > 100 µM (inactive) | > 100 µM (inactive) | > 100 µM (inactive) |
| CCCCOc1ccc2c(c1)CC[C@@H]1[C@@H]2CC[C@]2(C)C(=O)N(CCCC)C(=O)C[C@@H]12 | 6.37 µM (inactive) |  | > 100 µM |  | 44.6 µM (inactive) | > 100 µM (inactive) | > 100 µM (inactive) | > 100 µM (inactive) | 65.9 µM (inactive) | > 100 µM (inactive) | > 100 µM (inactive) | > 100 µM (inactive) | > 100 µM (inactive) | 91.8 µM (inactive) | > 100 µM (inactive) | > 100 µM (inactive) | > 100 µM (inactive) | > 100 µM (inactive) |  |  |
| O=C(CN1CCN(Cc2ccccc2)CC1)c1ccc2[nH]c(=O)oc2c1 | > 100 µM (inactive) | > 100 µM (inactive) | > 100 µM | > 100 µM (inactive) | > 100 µM (inactive) | > 41.3 µM (inactive) | > 100 µM (inactive) | > 100 µM (inactive) | > 100 µM (inactive) | > 100 µM (inactive) | > 100 µM (inactive) | > 100 µM (inactive) | > 88.7 µM (inactive) | > 100 µM (inactive) | 0.845 µM (active) | > 100 µM (inactive) | > 67.1 µM (inactive) | 60.7 µM (inactive) | > 66.2 µM (inactive) | > 100 µM (inactive) |
| Cc1ccc(/C=C/C(=O)C(C)C)cc1 | 31.3 µM (inactive) | > 100 µM (inactive) |  | 47.5 µM (inactive) | 22.9 µM (inactive) | 35.2 µM (inactive) | 32.1 µM (inactive) | 48.8 µM (inactive) | 27.9 µM (inactive) | 84.7 µM (inactive) | 46.6 µM (inactive) | > 100 µM (inactive) | 24.5 µM (inactive) | > 100 µM (inactive) |  | > 100 µM (inactive) | 31.8 µM (inactive) | 54.1 µM (inactive) | > 100 µM (inactive) | > 100 µM (inactive) |
| COC(=O)c1cccc2c3ccccc3c3ccccc3c12 | 29 µM (inactive) | 37.2 µM (inactive) | 35.2 µM | 43.5 µM (inactive) | 27.5 µM (inactive) | 26.9 µM (inactive) | 21.4 µM (inactive) | 39.5 µM (inactive) |  | 30.4 µM (inactive) | 23.1 µM (inactive) | 43.1 µM (inactive) | 26.1 µM (inactive) | 16.6 µM (inactive) | 73.5 µM (inactive) | 20.2 µM (inactive) | 36.8 µM (inactive) | 39.9 µM (inactive) | > 100 µM (inactive) | 44.5 µM (inactive) |
| O=C1C(=O)N(C2CCCCC2)C(=S)N1C1CCCCC1 | > 100 µM (inactive) | > 100 µM (inactive) | > 100 µM | > 100 µM (inactive) | > 100 µM (inactive) | > 100 µM (inactive) |  | > 100 µM (inactive) | > 100 µM (inactive) | > 100 µM (inactive) | > 100 µM (inactive) | > 100 µM (inactive) | > 100 µM (inactive) | > 100 µM (inactive) | > 100 µM (inactive) | > 100 µM (inactive) | > 100 µM (inactive) | > 100 µM (inactive) | > 100 µM (inactive) | > 100 µM (inactive) |
| COC1CCC2C(=O)CCCC2O1 (stereo unspecified) | > 100 µM (inactive) | > 100 µM (inactive) | > 100 µM | > 100 µM (inactive) |  | > 100 µM (inactive) | > 100 µM (inactive) | > 100 µM (inactive) | > 100 µM (inactive) | > 100 µM (inactive) | > 100 µM (inactive) | > 100 µM (inactive) | > 100 µM (inactive) | > 100 µM (inactive) | > 100 µM (inactive) | > 100 µM (inactive) | > 100 µM (inactive) | > 100 µM (inactive) | > 100 µM (inactive) | > 100 µM (inactive) |
